Data: patent publication US20090318375A1, “Crystalline Azithromycin L-Malate Monohydrate and Pharmaceutical Composition Containing Same” (Hanmi Pharm Co., Ltd, priority 2003, published 2009)
Where two headings read alike, the source gives them in different places.

How the values were obtained:
[1] = Hygroscopicity of acid addition salts of azithromycin after storage; assay type: physicochemical; details: after 24 hours storage at 40° C. and 75% relative humidity
[2] = Moisture uptake of malate anhydrates exposed at 40° C. and 75% relative humidity; assay type: physicochemical; details: exposed at 40° C. and 75% relative humidity for 10 hours
[3] = Water-solubility test; assay type: physicochemical; details: thermodynamic from solid, 25° C., based on amount of azithromycin dissolved
Method: The azithromycin L-malate monohydrate of the present invention and azithromycin dihydrate were dissolved in deionized water and in phosphoric acid buffer solution (pH 7) to saturation, respectively. The water-solubility of each of the saturated solutions was analyzed by HPLC according to the procedure described in the US Pharmacopoeia, to determine the amount of azithromycin dissolved.

[4] = Non-hygroscopicity test (moisture content, Karl-Fisher titrator); assay type: physicochemical
Method: The inventive azithromycin L-malate monohydrate was continuously exposed at 25 or 40° C. and 40 to 90% relative humidity for a period of over 15 days. The moisture contents of the inventive salt measured with a Karl-Fisher titrator at storage time 0, 3, 7 and 15 days are shown in Table 5 and FIG. 5.

[5] = Heat stability test (remaining active azithromycin by HPLC); assay type: physicochemical; details: 60° C. and 75% relative humidity; for Amount of titrated azithromycin: sealed
Method: The time-dependent stability at a high temperature of the inventive azithromycin L-malate monohydrate was measured and compared with that of the known azithromycin dihydrate.

[6] = dog, in vivo, po, 20 mg/kg
Method: (§1) Specifically, twelve Marshall beagle dogs (Beijing, average weight: 9.5±0.5 kg) were divided with two groups each consisting of six dogs. Each of divided dogs was fasted for 16 hours and then orally administered with a single 20 mg/kg dose of the inventive azithromycin L-malate monohydrate (test group) or azithromycin dihydrate (control group) contained in a gelatin capsule. After administration, blood samples were periodically collected, followed by separating plasma therefrom. The azithromycin samples extracted from the plasma was subjected to LC/MS/MS analysis to measure the amount of azithromycin therein and to calculate pharmacokinetic parameters.

[7] = in vivo; details: beagle, dog, po, 20 mg/kg
Method: as §1

[8] = 37° C.; cited from earlier work
[9] = Pharmacokinetic test, azithromycin concentration in blood; details: beagle, dog, plasma, po, 20 mg/kg
Method: as §1

[10] = deionized water, water, read-out: Solubility, deionized water
[11] = phosphoric acid buffer solution, aqueous buffer, phosphoric acid buffer pH 7, read-out: Solubility, buffer solution (pH 7)

Q: Which “Salt form (hygroscopicity)” value [1] does the source give for 2-naphthalene sulfonic acid here?
A: The value was “Crystalline, hygroscopic”.

Q: With CC[C@H]1OC(=O)[C@H](C)[C@@H](O[C@H]2C[C@@](C)(OC)[C@@H](O)[C@H](C)O2)[C@H](C)[C@@H](O[C@@H]2O[C@H](C)C[C@H](N(C)C)[C@H]2O)[C@](C)(O)C[C@@H](C)CN(C)[C@H](C)[C@@H](O)[C@]1(C)O.O=C(O)CC(O)C(=O)O (racemic) [DL-malate anhydrate, Azithromycin DL-Malate Anhydrate] as the compound, how does the “Salt form (hygroscopicity)” value [1] read?
A: Its value is “Crystalline, hygroscopic^e)”.

Q: And the “Moisture content increased to” value [2]?
A: The value was no less than 6%.

Q: Which “Salt form (hygroscopicity)” value [1] does the source give for CC[C@H]1OC(=O)[C@H](C)[C@@H](O[C@H]2C[C@@](C)(OC)[C@@H](O)[C@H](C)O2)[C@H](C)[C@@H](O[C@@H]2O[C@H](C)C[C@H](N(C)C)[C@H]2O)[C@](C)(O)C[C@@H](C)CN(C)[C@H](C)[C@@H](O)[C@]1(C)O.O=C(O)C[C@H](O)C(=O)O [Azithromycin L-malate monohydrate, azithromycin L-malate monohydrate] here?
A: The value was “Crystalline, non-hygroscopic^c)”.

Q: And the solubility [3, 10]?
A: The solubility was 393000 µg/mL.

Q: What about the solubility [3, 11] of the same compound?
A: The solubility was 392000 µg/mL.

Q: And the “Hygroscopicity (in words)” value ([4]; 25 or 40° C., 40 to 90% relative humidity, 15 days)?
A: The value was “largely non-hygroscopic”.

Q: What about the Moisture content ([4]; 40% relative humidity, 25° C., 3 days) of the same compound?
A: Its Moisture content is 1.78 wt %.

Q: What about the Moisture content ([4]; 40% relative humidity, 25° C., 7 days) of the same compound?
A: The Moisture content was 1.75 wt %.

Q: And the Moisture content ([4]; 40% relative humidity, 25° C., 15 days)?
A: Its Moisture content is 1.73 wt %.

Q: What about the Moisture content ([4]; 40% relative humidity, 25° C., initial) of the same compound?
A: Its Moisture content is 1.75 wt %.

Q: What about the Moisture content ([4]; 60% relative humidity, 25° C., 3 days) of the same compound?
A: Its Moisture content is 1.82 wt %.

Q: And the Moisture content ([4]; 60% relative humidity, 25° C., 7 days)?
A: The Moisture content was 1.80 wt %.

Q: What about the Moisture content ([4]; 60% relative humidity, 25° C., 15 days) of the same compound?
A: Its Moisture content is 1.80 wt %.

Q: What about the Moisture content ([4]; 60% relative humidity, 25° C., initial) of the same compound?
A: Its Moisture content is 1.75 wt %.

Q: And the Moisture content ([4]; 75% relative humidity, 40° C., 3 days)?
A: Its Moisture content is 1.80 wt %.

Q: And the Moisture content ([4]; 75% relative humidity, 40° C., 7 days)?
A: The Moisture content was 1.82 wt %.

Q: What about the Moisture content ([4]; 75% relative humidity, 40° C., 15 days) of the same compound?
A: Its Moisture content is 1.85 wt %.

Q: What about the Moisture content ([4]; 75% relative humidity, 40° C., initial) of the same compound?
A: The Moisture content was 1.75 wt %.

Q: What about the Moisture content ([4]; 90% relative humidity, 40° C., 3 days) of the same compound?
A: The Moisture content was 1.87 wt %.

Q: And the Moisture content ([4]; 90% relative humidity, 40° C., 7 days)?
A: The Moisture content was 1.85 wt %.

Q: What about the Moisture content ([4]; 90% relative humidity, 40° C., 15 days) of the same compound?
A: The Moisture content was 1.85 wt %.

Q: What about the Moisture content ([4]; 90% relative humidity, 40° C., initial) of the same compound?
A: Its Moisture content is 1.75 wt %.

Q: And the “Heat stability (in words)” value ([5]; 28 days)?
A: The value was “highly stable”.

Q: What about the “Amount of titrated azithromycin” value ([5]; 7 days) of the same compound?
A: Its value is 984.6 µg/mg.

Q: And the “Amount of titrated azithromycin” value ([5]; 14 days)?
A: Its value is 985.1 µg/mg.

Q: What about the “Amount of titrated azithromycin” value ([5]; 21 days) of the same compound?
A: Its value is 987.0 µg/mg.

Q: What about the “Amount of titrated azithromycin” value ([5]; 28 days) of the same compound?
A: Its value is 985.4 µg/mg.

Q: What about the “Amount of titrated azithromycin” value ([5]; initial) of the same compound?
A: Its value is 986.4 µg/mg.

Q: And the “AUC0-24, T group/C group” value [6]?
A: Its value is 1.34.

Q: What about the “AUC0-48, T group/C group” value [6] of the same compound?
A: Its value is 1.34.

Q: What about the “Cmax compared with azithromycin dihydrate (in words)” value [6] of the same compound?
A: The value was “about two times higher”.

Q: And the “Cmax, T group/C group” value [6]?
A: Its value is 1.94.

Q: What about the “Tmax, T group/C group” value [6] of the same compound?
A: Its value is 0.75.

Q: What about the Cmax [7] of the same compound?
A: Its Cmax is 3780 ± 1380 ng/mL.

Q: And the Tmax [7]?
A: Its Tmax is 36 ± 12 min.

Q: And the AUC(0-t) ([7]; AUC0-24)?
A: Its AUC(0-t) is 27600 ± 6860 ng·h/mL.

Q: And the AUC(0-t) ([7]; AUC0-48)?
A: The AUC(0-t) was 37300 ± 8830 ng·h/mL.

Q: Which solubility [3, 10] does the source give for CC[C@H]1OC(=O)[C@H](C)[C@@H](O[C@H]2C[C@@](C)(OC)[C@@H](O)[C@H](C)O2)[C@H](C)[C@@H](O[C@@H]2O[C@H](C)C[C@H](N(C)C)[C@H]2O)[C@](C)(O)C[C@@H](C)CN(C)[C@H](C)[C@@H](O)[C@]1(C)O [Azithromycin dihydrate, 9-deoxo-9a-aza-9a-methyl-9a-homoerythromycin A, reference compound] here?
A: The solubility was 100 µg/mL.

Q: What about the solubility [3, 11] of the same compound?
A: The solubility was 5100 µg/mL.

Q: What about the “Heat stability (in words)” value ([5]; 28 days) of the same compound?
A: Its value is “significant degradation”.

Q: What about the “Amount of titrated azithromycin” value ([5]; 7 days) of the same compound?
A: Its value is 974.6 µg/mg.

Q: And the “Amount of titrated azithromycin” value ([5]; 14 days)?
A: The value was 975.3 µg/mg.

Q: What about the “Amount of titrated azithromycin” value ([5]; 21 days) of the same compound?
A: The value was 973.2 µg/mg.

Q: And the “Amount of titrated azithromycin” value ([5]; 28 days)?
A: The value was 971.6 µg/mg.

Q: What about the “Amount of titrated azithromycin” value ([5]; initial) of the same compound?
A: The value was 976.5 µg/mg.

Q: And the Water-solubility [8]?
A: The Water-solubility was 1100 µg/mL.

Q: And the Cmax [7]?
A: The Cmax was 1950 ± 710 ng/mL.

Q: What about the AUC(0-t) ([7]; AUC0-24) of the same compound?
A: The AUC(0-t) was 20600 ± 6640 ng·h/mL.

Q: And the AUC(0-t) ([7]; AUC0-48)?
A: Its AUC(0-t) is 27900 ± 9710 ng·h/mL.

Q: And the Tmax [9]?
A: The Tmax was 48 ± 18 min.

Q: With Br [Hydrobromic acid] as the compound, how does the “Salt form (hygroscopicity)” value [1] read?
A: Its value is “Amorphous, hygroscopic”.

Q: Which “Salt form (hygroscopicity)” value [1] does the source give for Cl [Hydrochloric acid] here?
A: The value was “Amorphous, hygroscopic”.

Q: For O=C(O)[C@H](O)[C@@H](O)C(=O)O [L-Tartaric acid], which “Salt form (hygroscopicity)” value [1] is on record?
A: Its value is “Crystalline, hygroscopic”.

Q: For CCC1OC(=O)C(C)C(OC2CC(C)(OC)C(O)C(C)O2)C(C)C(OC2OC(C)CC(N(C)C)C2O)C(C)(O)CC(C)CN(C)C(C)C(O)C1(C)O.O=C(O)CC(O)C(=O)O [L-malate anhydrate, Azithromycin L-Malate Anhydrate], which “Salt form (hygroscopicity)” value [1] is on record?
A: Its value is “Crystalline, hygroscopic^d)”.

Q: And the “Increase of moisture content” value [2]?
A: The value was “about 2.0%”.

Q: With O=S(=O)(O)O [Sulfuric acid] as the compound, how does the “Salt form (hygroscopicity)” value [1] read?
A: The value was “Amorphous, hygroscopic”.

Q: For Cc1ccc(S(=O)(=O)O)cc1 [p-toluene sulfonic acid], which “Salt form (hygroscopicity)” value [1] is on record?
A: Its value is “Amorphous, hygroscopic”.

Q: Which “Salt form (hygroscopicity)” value [1] does the source give for Azithromycin D-Malate Anhydrate here?
A: Its value is “Crystalline, hygroscopic^f)”.

Q: What about the “Increase of moisture content” value [2] of the same compound?
A: Its value is no less than 8%.

Q: With Citric acid as the compound, how does the “Salt form (hygroscopicity)” value [1] read?
A: Its value is “Amorphous, hygroscopic”.

Q: Which “Salt form (hygroscopicity)” value [1] does the source give for Fumaric acid here?
A: Its value is “Crystalline, hygroscopic”.

Q: For Maleic acid, which “Salt form (hygroscopicity)” value [1] is on record?
A: The value was “Amorphous, hygroscopic”.
